Reference: patent US20090197960A1, “Method of Inhibiting Polyneuropathic Pain with 3-(2-Dimethylaminomethylcyclohexyl) Phenol” (Gruenenthal GmbH, priority 2008, published 2009)

Tests used:
[1] = system: pain in diabetic polyneuropathy; conditions: number of patients treated for one patient to experience more than 50% pain relief; cited from earlier work
[2] = system: pain in post-herpetic neuralgia; conditions: number of patients treated for one patient to experience more than 50% pain relief; cited from earlier work
[3] = system: cold allodynia in mononeuropathic pain; assay: Mononeuropathic pain model according to Bennett (ischial nerve ligatures), cold allodynia on cold metal plate at 4° C.; format: in vivo, Sprague Dawley rats
Procedure: (§1) Male Sprague Dawley rats (140-180 g, Janvier, France) were kept under standard conditions (06.00-18.00 light, 18.00-06.00 darkness; 20-24° C. room temperature, 35-70% relative humidity; tap water and standard feed (ad libitum)) in groups of five animals in Macrolon type 4 cages.
The investigation was carried out according to Bennett et al., Pain, 1988, 33, 87-107.
Under pentobarbital anaesthesia (Narcocen, 60 mg/kg i.p., Merial GmbH, Germany), four loose ligatures were placed unilaterally on the right ischial nerve. On the paw innervated by the damaged nerve, the animals developed hypersensitivity which, after one week's convalescence, was quantified over a period of approx. four weeks using a cold metal plate at 4° C. (cold allodynia). The animals were observed on this plate for a period of 2 min. and the number of withdrawal responses by the damaged paw was measured. The action of the substance, relative to the preliminary value before administration of the substance, was determined over a period of one hour at four different times (15, 30, 45, 60 min after administration). The inhibition of cold allodynia at the individual measurement times was stated in percent relative to the individual pretest (% MPE), with the pretest corresponding to 0% MPE and complete inhibition (0 withdrawal responses per 2 min) to 100% MPE. Group size was n=10. The significance of a substance's action was determined on the basis of the percentage inhibition values relative to the vehicle group by bifactorial analysis of variance and post hoc Bonferroni analysis, the ED50 value by linear regression analysis for the individual measurement points or the area under the curve (AUC).

[4] = system: cold allodynia in polyneuropathic pain; assay: Polyneuropathic pain model according to Authier (vincristine-induced), cold allodynia with acetone drop; format: in vivo, Sprague Dawley rats
Procedure: as §1
The investigation was carried out according to Authier et al., Neuroreport, 1999, 10, 965-8.
Three days after the final vincristine treatment, the animals had developed hypersensitivity to cold (cold allodynia) which continued over a period of three weeks. For testing, the animals were placed under a plastic cover on a grating and, after habituation, cold allodynia was quantified. To this end, a drop of acetone (10 μl) was carefully applied onto a hind paw with a syringe and a thin plastic tube. The number of induced withdrawal responses (shaking, stamping or licking) was recorded over a period of 30 sec. The cumulative number from 5 stimulations (at 5 min intervals from one another) was determined before and at different times after administration of the substance or the vehicle. The percentage inhibition value (% MPE) was determined in comparison with the particular pretest (0% MPE) and with the weekly vehicle control group (100% MPE=0 withdrawal responses). The size of the group was usually n=10. The significance of a substance's action was determined on the basis of the percentage inhibition value relative to the vehicle group by means of bifactorial analysis of variance and post hoc Bonferroni analysis, the ED50 value by linear regression analysis for the individual measurement points.

CN(C)CCCN1c2ccccc2CCc2ccccc21 [Imipramine]
NNT (Numbers Needed to Treat) [1]: 1.4

COc1cc(CNC(=O)CCCC/C=C/C(C)C)ccc1O [Capsaicin]
NNT (Numbers Needed to Treat) [1]: 5.9 | NNT (Numbers Needed to Treat) [2]: 5.3

N[C@@H](Cc1ccc(O)c(O)c1)C(=O)O [L-Dopa]
NNT (Numbers Needed to Treat) [1]: 3.4

NCC1(CC(=O)O)CCCCC1 [Gabapentin]
NNT (Numbers Needed to Treat) [1]: 3.7 | NNT (Numbers Needed to Treat) [2]: 3.2

COc1ccc2c(c1)[C@]13CCCC[C@@H]1[C@H](C2)N(C)CC3 [Oextromethorphan]
NNT (Numbers Needed to Treat) [1]: 1.9

COc1ccc2c3c1O[C@H]1C(=O)CC[C@@]4(O)[C@@H](C2)N(C)CC[C@]314 [Oxycodone]
NNT (Numbers Needed to Treat) [2]: 2.5

NC(=O)N1c2ccccc2C=Cc2ccccc21 [Carbamazepine]
NNT (Numbers Needed to Treat) [1]: 3.3

COc1cccc(C2(O)CCCCC2CN(C)C)c1 (stereo not shown) [Tramadol]
NNT (Numbers Needed to Treat) [1]: 3.4

Cc1cccc(C)c1OCC(C)N (stereo not shown) [Mexiletine]
NNT (Numbers Needed to Treat) [1]: 10.0

CN(C)C[C@@H]1CCCC[C@H]1c1cccc(O)c1 [(1R,2R)-3-(2-Dimethylaminomethylcyclohexyl)phenol]
inhibition of cold allodynia (in words) ([3]; 10-31.6 mg/kg i.p.): dose-dependent inhibition | maximum effect ([3]; 15 min after administration of 31.6 mg/kg): 80 % MPE | ED50 ([3]; Rattus norvegicus, ip, 0.5 h, 30 min after administration, i.p., mononeuropathic pain model, read-out: ED50 value (95% VB)): 17.6 mg/kg | inhibition of cold allodynia, Mean ([3]; dose 10 (mg/kg i.p.), 15 min after administration): 22.16 % MPE | inhibition of cold allodynia, Mean ([3]; dose 10 (mg/kg i.p.), 30 min after administration): 20.93 % MPE | inhibition of cold allodynia, Mean ([3]; dose 10 (mg/kg i.p.), 45 min after administration): 8.60 % MPE | inhibition of cold allodynia, Mean ([3]; dose 10 (mg/kg i.p.), 60 min after administration): 9.23 % MPE | inhibition of cold allodynia, Mean ([3]; dose 21.5 (mg/kg i.p.), 15 min after administration): 56.62 % MPE | inhibition of cold allodynia, Mean ([3]; dose 21.5 (mg/kg i.p.), 30 min after administration): 61.06 % MPE | inhibition of cold allodynia, Mean ([3]; dose 21.5 (mg/kg i.p.), 45 min after administration): 34.96 % MPE | inhibition of cold allodynia, Mean ([3]; dose 21.5 (mg/kg i.p.), 60 min after administration): 16.33 % MPE | inhibition of cold allodynia, Mean ([3]; dose 31.6 (mg/kg i.p.), 15 min after administration): 80.03 % MPE | inhibition of cold allodynia, Mean ([3]; dose 31.6 (mg/kg i.p.), 30 min after administration): 79.15 % MPE | inhibition of cold allodynia, Mean ([3]; dose 31.6 (mg/kg i.p.), 45 min after administration): 61.68 % MPE | inhibition of cold allodynia, Mean ([3]; dose 31.6 (mg/kg i.p.), 60 min after administration): 21.18 % MPE | minimally active dose at which a statistically significant inhibition was obtained ([3]; i.p., mononeuropathic pain model): 21.5 mg/kg | dose of significant inhibition, mononeuropathic versus polyneuropathic pain model ([4]; 21.5 mg/kg i.p. versus 4.64 mg/kg i.p.): more than four times higher | inhibition of cold allodynia (in words) ([4]; 10-21.5 mg/kg i.p.): dose-dependent inhibition | maximum effect ([4]; 30 min after administration of 21.5 mg/kg): 74 % MPE | ED50 ([4]; Rattus norvegicus, ip, 0.5 h, 30 min after administration, i.p., polyneuropathic pain model, read-out: ED50 value (95% VB)): 5.7 mg/kg | efficacy in polyneuropathic pain relative to mononeuropathic pain in an animal model ([4]; animal model): approx. four times greater | inhibition of cold allodynia, Mean ([4]; dose 2.15 (mg/kg i.p.), 30 min): 48.4 % MPE | inhibition of cold allodynia, Mean ([4]; dose 2.15 (mg/kg i.p.), 180 min): −37.7 % MPE | inhibition of cold allodynia, Mean ([4]; dose 4.64 (mg/kg i.p.), 30 min): 67.9 % MPE | inhibition of cold allodynia, Mean ([4]; dose 4.64 (mg/kg i.p.), 180 min): 22.6 % MPE | inhibition of cold allodynia, Mean ([4]; dose 10 (first dose line of the table, i.p.), 30 min): −28.9 % MPE | inhibition of cold allodynia, Mean ([4]; dose 10 (first dose line of the table, i.p.), 180 min): −22.2 % MPE | inhibition of cold allodynia, Mean ([4]; dose 10 (fourth dose line of the table, mg/kg i.p.), 30 min): 58.7 % MPE | inhibition of cold allodynia, Mean ([4]; dose 10 (fourth dose line of the table, mg/kg i.p.), 180 min): 20.8 % MPE | inhibition of cold allodynia, Mean ([4]; dose 21.5 (mg/kg i.p.), 30 min): 74.2 % MPE | inhibition of cold allodynia, Mean ([4]; dose 21.5 (mg/kg i.p.), 180 min): 15.2 % MPE | minimally active dose at which a statistically significant inhibition was obtained ([4]; i.p., polyneuropathic pain model): 4.64 mg/kg
